For orientation: IC50 means the midpoint of a concentration-inhibition curve.

The results in this text go back to patent US9512169B2, “3-substituted estra-1,3,5(10),16-tetraene derivatives, methods for the production thereof, pharmaceutical preparations containing same, and use thereof for the production of medicaments” (BAYER PHARMA AKTIENGESELLSCHAFT, priority 2012, dated 2016).

“And” between values parts separate entries of the source, which are not always exact repeats. Equal values may be shown once.

T1 sequence (P42330 whole entry): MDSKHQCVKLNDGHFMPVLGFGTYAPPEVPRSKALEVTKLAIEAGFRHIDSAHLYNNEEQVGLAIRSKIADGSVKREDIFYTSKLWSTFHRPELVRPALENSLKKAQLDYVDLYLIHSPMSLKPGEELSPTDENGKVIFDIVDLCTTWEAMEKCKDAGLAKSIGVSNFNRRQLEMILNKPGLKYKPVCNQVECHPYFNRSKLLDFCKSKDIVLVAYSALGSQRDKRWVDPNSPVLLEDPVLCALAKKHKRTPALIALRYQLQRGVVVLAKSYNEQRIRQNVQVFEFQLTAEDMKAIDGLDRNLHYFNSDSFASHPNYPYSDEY

The first assay has as its target T1, AKR1C3 (Homo sapiens (Human), UniProt P42330). Put plainly: AKR1C3 inhibition in a cell-based system (HEK293 cells transfected with AKR1C3 expression plasmid, coumberol fluorescence). The following applies: HEK293 cells transfected with AKR1C3, incubation overnight; repeated lines = independent determinations; read-out: Cellular AKR1C3 inhibition IC50. How it is done: The inhibition of AKR1C3 by the substances described in the present invention was measured in a cell-based assay using […] as substrate for the AKR1C3 (Halim, M., Yee, D. J., and Sames, D., J. AM. CHEM. SOC. 130, 14123-14128 (2008) and Yee, D. J., Balsanek, V., Bauman, D. R., Penning, T. M., and Sames, D., Proc. Natl. Acad. Sci. USA 103, 13304-13309 (2006)) (cf. Example 20).
The cell system used were HEK293 cells (ATCC, USA) (cell culture medium: DMEM, 1.5 g glucose, 10% FCS, PSG). The cells were transfected in an AKR1C3 expression plasmid (pCMV6-AC-AKR1C3, GenBank Accession No. NM_003739.4) overnight (X-tremeGENE HP, Roche). The next morning, the cells were sown in black 96well cell culture plates at a cell density of 40000 cells/well (Greiner Bio-One, Frickenhausen, Germany). After 7 h, the cells were incubated with the test substances (dissolved in 100× concentration in DMSO, final concentration between 10^−11M and 10^−5M) and […] (dissolved in cell culture medium, final concentration 5×10^−6M) overnight. The next morning, the fluorescence of coumberol was measured at 535 nm (excitation at 355 nm) using a suitable measuring instrument (Mithras, from Berthold). The fluorescence intensity was used as a measure of the amount of coumberol formed and thus of the enzyme activity of AKR1C3. The data were normalized (transfected cells without inhibitor, only DMSO=0% inhibition; transfected cells, 10 μM inhibitor EM-1404 [F. Labrie et al. U.S. Pat. No. 6,541,463, 2003]=100% inhibition), and the IC50 values were calculated using a 4-parameter fit.
In the cell-based assay described above, the pharmacological substances claimed were examined for their inhibitory activity on the AKR1C3 enzyme (see Table 2).
With `C[C@]12CC[C@@H]3c4ccc(OCC(=O)O)cc4CC[C@H]3[C@@H]1CC=C2c1cncc(C(F)(F)F)c1` [Example 2, ({17-[5-(Trifluoromethyl)pyridin-3-yl]estra-1,3,5(10),16-tetraen-3-yl}oxy)acetic acid], the concentration for half-maximal inhibition (IC50) is 48 nM and 68 nM.
The same measure, in the same setting: to `C[C@]12CC[C@@H]3c4ccc(OCC(=O)O)cc4CC[C@H]3[C@@H]1CC=C2c1cncc(F)c1` [Example 3, {[17-(5-Fluoropyridin-3-yl)estra-1,3,5(10),16-tetraen-3-yl]oxy}acetic acid] belongs 49 nM and 56 nM and 31 nM; to `CC(C)(COc1ccc2c(c1)CC[C@@H]1[C@@H]2CC[C@]2(C)C(c3cncc(F)c3)=CC[C@@H]12)C(=O)O` [Example 8, 3-{[17-(5-Fluoropyridin-3-yl)estra-1,3,5(10),16-tetraen-3-yl]oxy}-2,2-dimethylpropanoic acid], 170 nM and 220 nM.

A further assay addresses T1, AKR1C3. Put plainly: AKR1C3 enzyme inhibition assay (Coumberone to Coumberol fluorescence). The assay is classed as biochemical. The following applies: recombinant human AKR1C3, 15 min pre-incubation, 90 min at 22° C.; repeated lines = two experimental determinations. Here is the method:
The AKR1C3-inhibitory activity of the substances of the present invention was measured in the AKR1C3 assay described in the paragraphs below.
Essentially, the enzyme activity is measured by quantification of the Coumberol from Coumberone (Halim, M., Yee, D. J., and Sames, D., J. AM. CHEM. SOC. 130, 14123-14128 (2008) and Yee, D. J., Balsanek, V., Bauman, D. R., Penning, T. M., and Sames, D., Proc. Natl. Acad. Sci. USA 103, 13304-13309 (2006)). In this test, the increase of the highly fluorescent Coumberol by NADPH- (nicotinamide adenine dinucleotide phosphate)-dependent reduction of the non-fluorescent Coumberone by AKR1C3 can be determined.
The enzyme used was recombinant human AKR1C3 (Aldo-keto reductase family 1 member C3) (GenBank Accession No. NM_003739). This was expressed in E. coli as GST (glutathione S transferase) fusion protein and purified by glutathione Sepharose affinity chromatography. The GST was removed by digestion with thrombin and subsequent size exclusion chromatography (Dufort, I., Rheault, P., Huang, X F., Soucy, P., and Luu-The, V., Endocrinology 140, 568-574 (1999)).
For the assay, 50 nl of a 100-fold concentrated solution of the test substance in DMSO were pipetted into a black low-volume 384-well microtiter plate (Greiner Bio-One, Frickenhausen, Germany), 2.0 μl of a solution of AKR1C3 in assay buffer [50 mM potassium phosphate buffer pH 7, 1 mM DTT, 0.0022% (w/v) Pluronic F-127, 0.01% BSA (w/v) and protease inhibitor cocktail (Complete, EDTA-free Protease Inhibitor Cocktail from Roche)] were added and the mixture was incubated for 15 min to allow pre-binding of the substances to the enzyme prior to the enzyme reaction. The enzyme reaction was then started by addition of 3 μl of a solution of NADPH (16.7 μM→final concentration in 5 μl of assay volume is 10 μM) and Coumberone (0.5 μM→final concentration in 5 μl of assay volume is 0.3 μM) in assay buffer, and the resulting mixture was incubated at 22° C. for the reaction time of 90 min. The concentration of the AKR1C3 was adapted to the respective activity of the enzyme preparation and adjusted such that the assay was carried out in the linear range. Typical concentrations were in the region of 1 nM. The reaction was stopped by addition of 5 μl of a stop solution consisting of the inhibitor EM-1404 [F. Labrie et al. U.S. Pat. No. 6,541,463, 2003] (2 μM→final concentration in […] is 1 μM). The fluorescence of the Coumberole was then measured at 520 nm (excitation at 380 nm) using a suitable measuring instrument (Pherastar from BMG Labtechnologies). The intensity of the fluorescence was used as a measure of the amount of Coumberole formed and thus of the enzyme activity of AKR1C3. The data were normalized (enzyme reaction without inhibitor=0% inhibition; all other assay components, but no enzyme=100% inhibition).
As described, the pharmacological substances claimed were examined for their inhibitory activity on the AKR1C3 enzyme (see Table 1). The compounds claimed show a strong inhibition of AKR1C3 in vitro (IC50 values <200 nM) and in most cases even IC50 values <50 nM.
As to `CC(Oc1ccc2c(c1)CC[C@@H]1[C@@H]2CC[C@]2(C)C(c3cncc(F)c3)=CC[C@@H]12)C(=O)O` (mixture of isomers) [Example 10, (RS)-2-{[17-(5-Fluoropyridin-3-yl)estra-1,3,5(10),16-tetraen-3-yl]oxy}propanoic acid], the IC50 was found to be 2.7 nM.
On to `CCC(Oc1ccc2c(c1)CC[C@@H]1[C@@H]2CC[C@]2(C)C(c3cncc(F)c3)=CC[C@@H]12)C(=O)O` (mixture of isomers) [Example 11, (RS)-2-{[17-(5-Fluoropyridin-3-yl)estra-1,3,5(10),16-tetraen-3-yl]oxy}butanoic acid], for which the IC50 came to 2.5 nM.
Turning to `COCC(Oc1ccc2c(c1)CC[C@@H]1[C@@H]2CC[C@]2(C)C(c3cncc(F)c3)=CC[C@@H]12)C(=O)O` (mixture of isomers) [Example 12, (RS)-2-{[17-(5-Fluoropyridin-3-yl)estra-1,3,5(10),16-tetraen-3-yl]oxy}-3-methoxy-propanoic acid], the 50% inhibitory concentration (IC50) came out at 4 nM.
For the compound `CC(Oc1ccc2c(c1)CC[C@@H]1[C@@H]2CC[C@]2(C)C(c3cccnc3)=CC[C@@H]12)C(=O)O` (mixture of isomers) [Example 13, (RS)-2-{[17-(3-Pyridyl)estra-1,3,5(10),16-tetraen-3-yl]oxy}propanoic acid], the IC50 worked out at 2.8 nM.
Take `CC(Oc1ccc2c(c1)CC[C@@H]1[C@@H]2CC[C@]2(C)C(c3cncc(F)c3)=CC[C@@H]12)C(N)=O` (mixture of isomers) [Example 14, (RS)-2-{[17-(5-Fluoropyridin-3-yl)estra-1,3,5(10),16-tetraen-3-yl]oxy}propanamide]: the IC50 came out at 20 nM.
For the compound `C[C@]12CC[C@@H]3c4ccc(OCC(O)CO)cc4CC[C@H]3[C@@H]1CC=C2c1cncc(F)c1` (mixture of isomers) [Example 17, (RS)-3-{[17-(5-Fluoropyridin-3-yl)estra-1,3,5(10),16-tetraen-3-yl]oxy}propan-1,2-diol], the IC50 came out at 25 nM.
For `C[C@]12CC[C@@H]3c4ccc(OC(C(=O)O)c5ccccc5)cc4CC[C@H]3[C@@H]1CC=C2c1cncc(F)c1` (mixture of isomers) [Example 18, (RS)-{[17-(5-Fluoropyridin-3-yl)estra-1,3,5(10),16-tetraen-3-yl]oxy}(phenyl)acetic acid], the IC50 amounted to 10 nM.
Take `C[C@]12CC[C@@H]3c4ccc(OCC(=O)O)cc4CC[C@H]3[C@@H]1CC=C2c1cncc(C(F)(F)F)c1` [Example 2, ({17-[5-(Trifluoromethyl)pyridin-3-yl]estra-1,3,5(10),16-tetraen-3-yl}oxy)acetic acid]: the IC50 is 33 nM and 23 nM.
Regarding `C[C@]12CC[C@@H]3c4ccc(OCC(=O)O)cc4CC[C@H]3[C@@H]1CC=C2c1cncc(F)c1` [Example 3, {[17-(5-Fluoropyridin-3-yl)estra-1,3,5(10),16-tetraen-3-yl]oxy}acetic acid], the IC50 was 16 nM and 8.6 nM.
Take `Cc1ccc(C2=CC[C@H]3[C@@H]4CCc5cc(OCC(=O)O)ccc5[C@H]4CC[C@]23C)cn1` [Example 4, {[17-(6-Methylpyridin-3-yl)estra-1,3,5(10),16-tetraen-3-yl]oxy}acetic acid]: the IC50 came to 136 nM.
On the same count and under the same terms, with `C[C@]12CC[C@@H]3c4ccc(OCC(=O)O)cc4CC[C@H]3[C@@H]1CC=C2c1cncnc1` [Example 5, {[17-(Pyrimidin-5-yl)estra-1,3,5(10),16-tetraen-3-yl]oxy}acetic acid] the figure was 89 nM; with `C[C@]12CC[C@@H]3c4ccc(OCC(=O)O)cc4CC[C@H]3[C@@H]1CC=C2c1cncc(C(=O)O)c1` [Example 6, 5-[3-(Carboxymethoxy)estra-1,3,5(10),16-tetraen-17-yl]nicotinic acid], 9.2 nM; with `Cc1cc(C2=CC[C@H]3[C@@H]4CCc5cc(OCC(=O)O)ccc5[C@H]4CC[C@]23C)cnn1` [Example 7, {[17-(6-Methylpyridazin-4-yl)estra-1,3,5(10),16-tetraen-3-yl]oxy}acetic acid], 1.4 nM.
As to `CC(C)(COc1ccc2c(c1)CC[C@@H]1[C@@H]2CC[C@]2(C)C(c3cncc(F)c3)=CC[C@@H]12)C(=O)O` [Example 8, 3-{[17-(5-Fluoropyridin-3-yl)estra-1,3,5(10),16-tetraen-3-yl]oxy}-2,2-dimethylpropanoic acid], the IC50 is 12 nM and 11 nM.
As for `C[C@]12CC[C@@H]3c4ccc(OCCCC(=O)O)cc4CC[C@H]3[C@@H]1CC=C2c1cncc(F)c1` [Example 9, 4-{[17-(5-Fluoropyridin-3-yl)estra-1,3,5(10),16-tetraen-3-yl]oxy}butanoic acid], the IC50 is 42 nM.
`C[C@]12CC[C@@H]3c4ccc(OCCCO)cc4CC[C@H]3[C@@H]1CC=C2c1cncc(F)c1` [Example 15, 3-{[17-(5-Fluoropyridin-3-yl)estra-1,3,5(10),16-tetraen-3-yl]oxy}propan-1-ol]: the IC50 was 54 nM.
The same measure, in the same setting: with `CC(C)(CO)COc1ccc2c(c1)CC[C@@H]1[C@@H]2CC[C@]2(C)C(c3cncc(F)c3)=CC[C@@H]12` [Example 16, 3-{[17-(5-Fluoropyridin-3-yl)estra-1,3,5(10),16-tetraen-3-yl]oxy}-2,2-dimethylpropan-1-ol] the figure was 124 nM; with `CCNC(=O)COc1ccc2c(c1)CC[C@@H]1[C@@H]2CC[C@]2(C)C(c3cncc(C(F)(F)F)c3)=CC[C@@H]12` [Example 19, N-Ethyl-2-({17-[5-(trifluoromethyl)pyridin-3-yl]estra-1,3,5(10),16-tetraen-3-yl}oxy)acetamide], 53 nM.
